Results taken from patent US20050079526A1, “Methods and apparatuses for characterizing refolding and aggregation of biological molecules” (Affinium Pharmaceuticals, Inc., priority 2002, published 2005).

Tests used:
the protein = experiment: extent of unfolding of a protein measured by fluorescence versus time after temperature jump to 55° C. (rate of unfolding ku); format: binding; details: fluorescence versus time at 55° C.; 5% ethanol; 10% glycerol; AND^+; compared with control solution; FIG. 6
Method: Multiple identical protein solutions were arranged in two-dimensional arrays of reservoirs which were incubated at different temperatures. These samples were alternatively illuminated with UV light and monochromatic red light. The fluorescence emitted and the light scattered at 90° were measured from the top of the arrangement. The fluorescence emitted and the light scattered intensity data were collected at intervals of time of incubation for all the temperatures simultaneously. In another example, the protein was incubated in 5% ethanol; 10% glycerol, AND^+ or a control solution and the extent of unfolding was measured at 55° C. A plots of fluorescence at the given temperature versus time was automatically built for all the samples, and the rate of unfolding ku was obtained from the fitted exponential grow portion of the curves for the proteins jumped to 55° C.

[1] = system: refolded Gaf domain of PDE10; experiment: thermal aggregation (light scattering) of refolded protein, temperature of aggregation (Tag) with ligands; format: binding; details: refolded Gaf domain of PDE10 in presence of ligand; light scattering versus temperature; FIG. 10
Method: The fluorescence emitted and the light scattered at 90° were measured from the top of the arrangement. The fluorescence emitted and the light scattered intensity data were collected at intervals of time of incubation for all the temperatures simultaneously.

Compound	effect on the stability of the protein (unfolding, ku) (the protein)	change of temperature of aggregation (Tag) [1]
NC(=O)c1ccc[n+]([C@@H]2O[C@H](COP(=O)([O-])OP(=O)(O)OC[C@H]3O[C@@H](n4cnc5c(N)ncnc54)[C@H](O)[C@@H]3O)[C@@H](O)[C@H]2O)c1 [AND^+]	strongest stabilizing effect	–
OCC(O)CO [Glycerol, glycerol]	stabilizing effect	–
Nc1nc2c(ncn2[C@@H]2O[C@@H]3COP(=O)(O)O[C@H]3[C@H]2O)c(=O)[nH]1 [cGMP]	–	increased the Tag
CCO [ethanol]	destabilizing effect or no effect at all	–
